Data: PubChem BioAssay (NCI)
Several values for one entry are separate records, joined by “and”; a condition that tells them apart may be missing. Equal entries are not always repeated.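 Protocol summary: plate cells (96-well), add compound at 5 concentrations, incubate 48 h, interpolate endpoints linearly. Abbreviation: GI50, concentration required for 50% inhibition of growth. TGI: total growth inhibition.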

Assays:
Assay in all cases: NCI anticancer screen, dose series, 48 h
[1] = system: MDA-MB-435
[2] = system: HCT-15 colon
[3] = system: SK-MEL-28 melanoma
[4] = system: A498 renal
[5] = system: HOP-92 NSCLC
[6] = system: NCI-H522 lung
[7] = system: CAKI-1 renal
[8] = system: 786-0 renal
[9] = system: OVCAR-3 ovarian
[10] = system: M19-MEL melanoma
[11] = system: DMS 114 small cell lung
[12] = system: DMS 273 small cell lung
[13] = system: SNB-78 CNS
[14] = system: KM20L2 colon

| Compound | TGI [1] [µM] | TGI [2] [µM] | TGI [3] [µM] | TGI [4] [µM] | TGI [5] [µM] | TGI [6] [µM] | TGI [7] [µM] | TGI [8] [µM] | TGI [9] [µM] | TGI [10] [µM] | TGI [11] [µM] | TGI [12] [µM] | TGI [13] [µM] | TGI [14] [µM] | GI50 [2] |
| --- | --- | --- | --- | --- | --- | --- | --- | --- | --- | --- | --- | --- | --- | --- | --- |
| CCSc1nc(C)nc2c1sc1nc3ccccc3n12 | > 100 | > 100 | > 100 | > 100 | > 100 | > 100 | > 100 | > 100 | > 100 | – | – | – | – | – | – |
| CCCCN1CCC(O)(c2cc(C(=O)O)[nH]c2-c2cc(C)no2)C1=O (configuration not stated) | > 100 | > 100 | > 100 | > 100 | > 100 | > 100 | > 100 | > 100 | > 100 | – | – | – | – | – | – |
| COc1cc(OC)cc(C(=O)Cc2c(C(=O)c3ccccc3)c3ccccc3n2C(=O)c2ccccc2)c1 | – | > 100 | > 100 | 92.5 | 31.3 | 45 | > 100 | > 100 | > 100 | > 100 | > 100 | > 100 | > 100 | > 100 | – |
| C=CC(C)(C)n1cc(C2=C(O)C(=O)C(c3c(CC=C(C)C)[nH]c4ccccc34)=C(O)C2=O)c2ccccc21 | 2.38 | 7.6 | 2.03 | 2.99 | 3.35 | 6.18 | 7.16 | 6.97 | 3.05 | – | – | – | – | – | – |
| COC1C(OC(C)=O)CC(=O)OC(C)C/C=C/C=C\C(O)C(C)CC(CC=O)C1OC1OC(C)C(OC2CC(C)(O)C(OC(=O)CC(C)C)C(C)O2)C(N(C)C)C1O (configuration not stated) | > 100 | > 100 | > 100 | > 100 | > 100 | > 100 | > 100 | > 100 | > 100 | – | – | – | – | – | 36.4 µM and > 100 µM |
| COc1cc(OC2OC(CO)C(O)C(O)C2O)c2c(c1)O[C@@H]1[C@H](O)Oc3cc(OC)c(OC)cc3[C@]1(O)C2=O (some centres not stated) | > 25 | > 25 | > 25 | > 25 | > 25 | > 25 | > 25 | > 25 | > 25 | – | – | – | – | – | – |
| OC1(C2(c3ccc(Cl)cc3)CCCC2)c2ccccc2C2=NCCN21 (configuration not stated) | 26.7 | 31 | 31 | 29.4 | 28.6 | 32.3 | 28.9 | 27.3 | 30.9 | – | – | – | – | – | – |
| CCOC(=O)/C=C(/C(=O)OCC)n1ccc(=O)n(CC(=O)OCC)c1=O | 3.64 | 1.84 | 3.32 | 28 | 1.46 | 0.624 | 0.32 | 1.67 | 2.44 | – | – | – | – | – | – |
| C[C@H]1[C@H](C)CC[C@]2(C(=O)OC3OC(CO)C(O)C(O)C3O)CC[C@]3(C)C(=CC[C@@H]4[C@@]5(C)C[C@@H](O)[C@@H]6OC(=O)c7cc(O)c(O)c(O)c7-c7c(cc(O)c(O)c7O)C(=O)OC[C@]6(CO)[C@@H]5CC[C@]43C)[C@H]12 (some centres not stated) | 32.9 | > 100 | > 100 | > 100 | > 100 | 37.3 | > 53.3 | 32.9 | > 72.1 | – | – | – | – | – | – |
| COc1ccc2c(c1)c(=O)c1c(NCCCN(C)C)ccc3ncn2c31 | 19.4 | 14.7 | 26.4 | 24.2 | 19.5 | 21.4 | 22.6 | 14.9 | 26.7 | 24.8 | 22.6 | 15.5 | 23.5 | 17.1 | – |
| CCOc1cc(/C=C2\N=C(c3ccccc3)N(c3nc4ccccc4s3)C2=O)ccc1O | > 100 | 82.5 | > 100 | > 100 | > 100 | 60 | > 100 | > 100 | > 100 | – | – | – | – | – | – |
| O=C1CN(c2ccccc2)C(=O)CN1CCN1CC(=O)N(c2ccccc2)CC1=O | > 100 | > 100 | > 100 | > 100 | > 100 | > 100 | > 100 | > 100 | > 100 | – | – | – | – | – | – |
| COc1ccc(NS(=O)(=O)c2ccc(N=C3C=C(Nc4ccc(S(=O)(=O)Nc5ccc(OC)nn5)cc4)C(=O)c4ccccc43)cc2)nn1 | – | 32.4 | 31.4 | 29 | 88.8 | 31.8 | 40.7 | 31.7 | 44.8 | 30.6 | 66.7 | 28.4 | > 100 | 31.8 | – |
| CC1(C)CC[C@]2(C(=O)O)CC[C@]3(C)C(=CC[C@@H]4[C@@]5(C)CC[C@H](OC6OC(CO)C(O)C(O)C6O)C(C)(C)[C@@H]5CC[C@]43C)[C@@H]2C1 (some centres not stated) | 3.39 | 10.7 | 3.69 | 3.82 | 3.06 | 2.91 | 5.93 | 3.23 | 3.01 | – | – | – | – | – | – |
| Fc1cc2nc3n(c2cc1F)C(c1c(Cl)cccc1Cl)SC3 (configuration not stated) | 28.9 | 36.7 | 28.6 | 34.6 | 30.8 | 35.1 | 27.1 | 28.3 | 25.7 | – | – | – | – | – | – |
| O=C(NNC(=O)c1c(Cl)c(Cl)c(Cl)c(Cl)c1-c1nc2ccccc2[nH]1)c1ccc(Cl)cc1 | 69.8 | > 100 | > 100 | > 100 | 84.7 | > 100 | > 100 | > 100 | > 100 | – | – | – | – | – | – |
| COc1ccc(NC(=S)Nc2c(C)n(C)n(-c3ccccc3)c2=O)cc1 | > 100 | > 100 | > 100 | > 100 | > 100 | > 100 | > 100 | > 100 | > 100 | – | – | – | – | – | – |
